Each structure is given as a SMILES string.

This assay deals with interaction between p53 and MDM2 proteins (Homo sapiens, UniProt Q00987). Put plainly: HTRF assay of inhibition of the p53-MDM2 interaction (GST-MDM2 / biotinylated p53 peptide). The settings on record: recombinant GST-tagged MDM2 and biotinylated p53 peptide, bsa:0.02%. It is filed as binding. A general note: TR-FRET usually uses a lanthanide donor and a delayed reading to cut background.
interaction between p53 and MDM2 proteins, sequence (Q00987 whole entry): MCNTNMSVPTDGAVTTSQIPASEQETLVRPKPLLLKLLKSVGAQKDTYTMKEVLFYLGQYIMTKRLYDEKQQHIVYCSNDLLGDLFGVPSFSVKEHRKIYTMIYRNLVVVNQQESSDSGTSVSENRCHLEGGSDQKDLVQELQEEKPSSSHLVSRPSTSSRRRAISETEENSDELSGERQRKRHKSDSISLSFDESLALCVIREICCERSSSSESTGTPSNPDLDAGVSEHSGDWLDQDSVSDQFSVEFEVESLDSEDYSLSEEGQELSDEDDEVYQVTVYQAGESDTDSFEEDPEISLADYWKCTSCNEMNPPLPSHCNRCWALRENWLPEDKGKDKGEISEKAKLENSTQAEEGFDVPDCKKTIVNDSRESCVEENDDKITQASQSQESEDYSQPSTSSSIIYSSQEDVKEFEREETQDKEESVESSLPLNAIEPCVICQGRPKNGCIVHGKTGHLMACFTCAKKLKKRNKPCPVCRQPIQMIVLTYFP
As to `CC(C)(C)C[C@@H]1N[C@@H](C(=O)Nc2ccc(C(N)=O)cc2)[C@H](c2cccc(Cl)c2F)[C@]12C(=O)Nc1cc(Cl)c(F)cc12` [Example 50, chiral (2′S,3′R,4′S,5′S)-6-chloro-4′-(3-chloro-2-fluoro-phenyl)-2′-(2,2-dimethyl-propyl)-5-fluoro-2-oxo-1,2-dihydro-spiro[indole-3,3′-pyrrolidine]-5′-carboxylic acid (4-carbamoyl-phenyl)-amide], the concentration for half-maximal inhibition (IC50) came to 6 nM.

`CCOc1cc(C(N)=O)ccc1NC(=O)[C@@H]1N[C@@H](CC(C)(C)C)[C@@]2(C(=O)Nc3cc(Cl)ccc32)[C@H]1c1cccc(Cl)c1F` (racemic) [Example 131, rac-(2′S,3′R,4′S,5′R)-6-chloro-4′-(3-chloro-2-fluoro-phenyl)-2′-(2,2-dimethyl-propyl)-2-oxo-1,2-dihydro-spiro[indole-3,3′-pyrrolidine]-5′-carboxylic acid (4-carbamoyl-2-ethoxy-phenyl)-amide]: the IC50 turned out to be 14 nM.

With `COc1cc(C(=O)O)ccc1NC(=O)[C@@H]1N[C@@H](CC(C)(C)C)[C@@]2(C(=O)Nc3cc(Cl)ccc32)[C@H]1c1cc(F)cc(Cl)c1` (racemic) [Example 125, rac-4-{[(2′S,3′R,4′R,5′R)-6-chloro-4′-(3-chloro-5-fluoro-phenyl)-2′-(2,2-dimethyl-propyl)-2-oxo-1,2-dihydro-spiro[indole-3,3′-pyrrolidine]-5′-carbonyl]-amino}-3-methoxy-benzoic acid], the IC50 is 7 nM.

Turning to `CC(C)(C)C[C@@H]1N[C@@H](C(=O)Nc2ccc(C(N)=O)cc2F)[C@H](c2cccc(Cl)c2F)[C@]12C(=O)Nc1cc(Cl)ccc12` (racemic) [Example 53, rac-(2′S,3′R,4′S,5′R)-6-chloro-4′-(3-chloro-2-fluoro-phenyl)-2′-(2,2-dimethyl-propyl)-2-oxo-1,2-dihydro-spiro[indole-3,3′-pyrrolidine]-5′-carboxylic acid (4-carbamoyl-2-fluoro-phenyl)-amide], the half-inhibitory concentration (IC50) turned out to be 11 nM.

Turning to `COc1cc(C#N)ccc1NC(=O)[C@@H]1N[C@@H](CC(C)(C)C)[C@@]2(C(=O)Nc3c2ccc(Cl)c3F)[C@H]1c1cccc(Cl)c1F` (racemic) [Example 177, rac-(2′S,3′R,4′S,5′R)-6-chloro-4′-(3-chloro-2-fluoro-phenyl)-2′-(2,2-dimethyl-propyl)-7-fluoro-2-oxo-1,2-dihydro-spiro[indole-3,3′-pyrrolidine]-5′-carboxylic acid (4-cyano-2-methoxy-phenyl)-amide], the IC50 was 21 nM.

On to `CC(C)(C)C[C@@H]1N[C@@H](C(=O)Nc2ccc(OCC(N)=O)cc2)[C@H](c2cccc(Cl)c2F)[C@]12C(=O)Nc1cc(Cl)ccc12` (racemic) [Example 210, rac-(2′S,3′R,4′S,5′R)-6-chloro-4′-(3-chloro-2-fluoro-phenyl)-2′-(2,2-dimethyl-propyl)-2-oxo-1,2-dihydro-spiro[indole-3,3′-pyrrolidine]-5′-carboxylic acid (4-carbamoylmethoxy-phenyl)-amide], for which the IC50 came out at 15 nM.

`COc1cc(C(N)=O)ccc1NC(=O)[C@@H]1N[C@@H](CC(C)(C)C)[C@@]2(C(=O)Nc3cc(Cl)ccc32)[C@H]1c1cc(F)cc(Cl)c1` (racemic) [Example 115, rac-(2′S,3′R,4′R,5′R)-6-chloro-4′-(3-chloro-5-fluoro-phenyl)-2′-(2,2-dimethyl-propyl)-2-oxo-1,2-dihydro-spiro[indole-3,3′-pyrrolidine]-5′-carboxylic acid (4-carbamoyl-2-methoxy-phenyl)-amide]: the IC50 is 6 nM.

Regarding `CC(C)(C)C[C@@H]1N[C@@H](C(=O)Nc2ccc3sc(C(=O)O)cc3c2)[C@H](c2cccc(Cl)c2F)[C@]12C(=O)Nc1cc(Cl)ccc12` (racemic) [Example 213, rac-5-{[(2′S,3′R,4′S,5′R)-6-chloro-4′-(3-chloro-2-fluoro-phenyl)-2′-(2,2-dimethyl-propyl)-2-oxo-1,2-dihydro-spiro[indole-3,3′-pyrrolidine]-5′-carbonyl]amino}-benzo[b]thiophene-2-carboxylic acid], the IC50 came out at 14 nM.

As to `COc1cc(C(N)=O)ccc1NC(=O)[C@@H]1N[C@@H](CC(C)(C)C)[C@@]2(C(=O)Nc3cc(Cl)c(F)cc32)[C@H]1c1cccc(Cl)c1F` (racemic) [Example 113, rac-(2′S,3′R,4′S,5′R)-6-chloro-4′-(3-chloro-2-fluoro-phenyl)-2′-(2,2-dimethyl-propyl)-5-fluoro-2-oxo-1,2-dihydro-spiro[indole-3,3′-pyrrolidine]-5′-carboxylic acid (4-carbamoyl-2-methoxy-phenyl)-amide], the half-inhibitory concentration (IC50) was 9 nM.

Regarding `CC(C)(C)C[C@@H]1N[C@@H](C(=O)Nc2ccc(C(N)=O)cc2)[C@H](c2cccc(Cl)c2)[C@]12C(=O)Nc1cc(Cl)ccc12` [Example 65B, chiral (2′S,3′R,4′R,5′R)-6-chloro-4′-(3-chloro-phenyl)-2′-(2,2-dimethyl-propyl)-2-oxo-1,2-dihydro-spiro[indole-3,3′-pyrrolidine]-5′-carboxylic acid (4-carbamoyl-phenyl)-amide], the IC50 came out at 6 nM.

For the compound `COC(=O)c1ccc(NC(=O)[C@@H]2N[C@@H](CC(C)(C)C)[C@@]3(C(=O)Nc4cc(Cl)ccc43)[C@H]2c2cccc(Cl)c2F)cc1` (racemic) [Example 5, rac-4-{[(2′S,3′R,4′S,5′R)-6-chloro-4′-(3-chloro-2-fluoro-phenyl)-2′-(2,2-dimethyl-propyl)-2-oxo-1,2-dihydro-spiro[indole-3,3′-pyrrolidine]-5′-carbonyl]-amino}-benzoic acid methyl ester], the IC50 came out at 16 nM.

Consider `COc1cc(NC(=O)[C@@H]2N[C@@H](CC(C)(C)C)[C@@]3(C(=O)Nc4cc(Cl)ccc43)[C@H]2c2cccc(Cl)c2F)ccc1C(=O)O` [Example 17, chiral 4-{[(2′S,3′R,4′S,5′R)-6-chloro-4′-(3-chloro-2-fluoro-phenyl)-2′-(2,2-dimethyl-propyl)-2-oxo-1,2-dihydro-spiro[indole-3,3′-pyrrolidine]-5′-carbonyl]-amino}-2-methoxy-benzoic acid], for which the IC50 amounted to 4 nM.

As to `COc1cc(C(=O)O)ccc1NC(=O)[C@@H]1N[C@@H](CC(C)(C)C)[C@@]2(C(=O)Nc3cc(Br)ccc32)[C@H]1c1cccc(Cl)c1F` (racemic) [Example 123, rac-4-{[(2′S,3′R,4′S,5′R)-6-bromo-4′-(3-chloro-2-fluoro-phenyl)-2′-(2,2-dimethyl-propyl)-2-oxo-1,2-dihydro-spiro[indole-3,3′-pyrrolidine]-5′-carbonyl]-amino}-3-methoxy-benzoic acid], the IC50 was found to be 6 nM.

On to `COC(=O)c1ccc(NC(=O)[C@@H]2N[C@@H](CC(C)(C)C)[C@@]3(C(=O)Nc4cc(Br)ccc43)[C@H]2c2cccc(Cl)c2F)c(OC)c1` (racemic) [Example 122, rac-4-{[(2′S,3′R,4′S,5′R)-6-bromo-4′-(3-chloro-2-fluoro-phenyl)-2′-(2,2-dimethyl-propyl)-2-oxo-1,2-dihydro-spiro[indole-3,3′-pyrrolidine]-5′-carbonyl]-amino}-3-methoxy-benzoic acid methyl ester], for which the IC50 came to 13 nM.

For orientation: IC50 means the midpoint of a concentration-inhibition curve.

These data come from patent publication US8088815B2, “Spiroindolinone pyrrolidines” (Hoffman-La Roche Inc., priority 2009, dated 2012).
